Experimental data as given in patent US7354954B1, “Use of GABA agonists for treatment of spastic disorders, convulsions, and epilepsy” (priority 2000, dated 2008).

What was measured:
[1] = test system: chronic spastic SCl rat model; assay: Spasticity score (scale adapted from the Ashworth score) in chronic spastic SCI rat model, intrathecal delivery by implantable pump; type: in vivo, Sprague Dawley rats; conditions: compared with baclofen
Procedure: (§1) A study on the use GABAmide was performed to compare its effectiveness to reduce spasticity and assess toxicity via intrathecal delivery in a chronic spastic SCl rat model utilizing an implantable refillable pump.
(§2) Subjects—Twenty Sprague Dawley rats with severe spinal cord injury and spasticity, which were more than ten weeks from initial weight, drop injury. […] The rats were implanted using the 2 French Fogarty balloon catheter attached to a refillable 1 cc. Pumps (ESOX Minneapolis Minn.) placed surgically in the subcutaneously between the shoulder blades one week earlier that had been effectively delivering preservative free normal saline. The ESOX pump flowed at a rate of 60 μl per day. […] The pump has the advantage that the solution in the pump can be changed so that drugs can be evaluated. GABAmide was placed in the pumps and the animals were evaluated at the times specified below. […] Rats were also assessed for functional changes utilizing the BBB scoring system for motor function and for their ability to walk a series of balance beams without falling that started at 7.7 cm. and decreased in 1 cm increments to 1.7 cm. in diameter (the smallest a normal rat can easily and reliably cross). […] Differences over times were assessed via descriptive statistics, Friedman's analysis, Wilcoxon signed-rank, for nonparametric data (spasticity, BBB score and beam walking).

Solubility in water = type: physicochemical
[2] = test system: chronic spastic SCl rat model; assay: Tolerability of intrathecal delivery in spastic SCI rats; type: in vivo
Procedure: as §1, §2

[3] = test system: chronic spastic SCl rat model; assay: BBB scoring system for motor function in spastic SCI rats; type: in vivo, Sprague Dawley rats
Procedure: as §2, with “day. The pump initially contained saline solution and the animals were again tested several days after pump placement for spasticity.” for “day.”

Stability in solution = type: physicochemical
From the text: In a preferred embodiment, the compound administered to a patient or subject is the gamma-aminobutyramide, a solubility product obtained by dissolving PROGABIDE in a solvent thereby generating gamma-aminobutyramide and an insoluble ketone. The insoluble ketone (4-chlorophenyl-5-fluoro-2-hydroxyphenylmethanone) is subsequently removed by filtration leaving the pure, stable gamma-aminobutyramide.

[4] = test system: chronic spastic SCl rat model; assay: Ability to walk a series of balance beams (7.7 cm to 1.7 cm) in spastic SCI rats; type: in vivo, Sprague Dawley rats; conditions: for beam walking, mean: 15 micrograms per day intrathecal
Procedure: Subjects—Twenty Sprague Dawley rats with severe spinal cord injury and spasticity, which were more than ten weeks from initial weight, drop injury. […] The rats were implanted using the 2 French Fogarty balloon catheter attached to a refillable 1 cc. Pumps (ESOX Minneapolis Minn.) placed surgically in the subcutaneously between the shoulder blades one week earlier that had been effectively delivering preservative free normal saline. The ESOX pump flowed at a rate of 60 μl per day. The pump initially contained saline solution and the animals were again tested several days after pump placement for spasticity. Design—Rats were randomized to a blinded three-arm study utilizing GABAmide, baclofen and placebo in a cross over design. The pump has the advantage that the solution in the pump can be changed so that drugs can be evaluated. GABAmide was placed in the pumps and the animals were evaluated at the times specified below. Main Outcome Measures—Rats were tested weekly for levels of spasticity: 4) spasms spontaneously occur over a four minute observation period 3) spasms with light touch of the foot 2) spasms with passive movement of the foot and leg by extending the leg 1) spasms with painful stimulation—extend leg and pinch foot 0) no spasms inducible This scale was adapted for use in animals from the Ashworth score (Albright et al., Intrathecal baclofen therapy for spasticity of cerebral origin: Patient selection guidelines 1997), which has been utilized so frequently in human trials and in the clinical management of intrathecal baclofen. Meythaler et al., Arch. Phys. Med. Rehabil. […] Rats were also assessed for functional changes utilizing the BBB scoring system for motor function and for their ability to walk a series of balance beams without falling that started at 7.7 cm. and decreased in 1 cm increments to 1.7 cm. in diameter (the smallest a normal rat can easily and reliably cross). […] Differences over times were assessed via descriptive statistics, Friedman's analysis, Wilcoxon signed-rank, for nonparametric data (spasticity, BBB score and beam walking).

canine model = conditions: 2000 μg/d for 28 days, intrathecal; cited from earlier work
[5] = 5 micrograms per day intrathecal, throughout the study

change in BBB score ([3]; 15 micrograms per day intrathecal, day five of treatment)	beam walking, mean ([4]; day five of treatment)	beam walking, mean ([4]; day three, baseline 5.2 cm, p=0.01 Friedman's)	Structure (SMILES)	accommodation to spasticity [1]	solubility in water (Solubility in water)	tolerability [2]	change in BBB score [3, 5]	stability (Stability in solution)	change in beam walking [4, 5]	histopathology (canine model)
–	–	–	NCCCC(N)=O [GABAmide, gamma-aminobutyramide]	less accommodation to spasticity than baclofen	soluble in water	well tolerated	not statistically significant change	relatively stable for long periods of time	not statistically significant change	–
not significant	6.0 cm	2.7 cm	NCC(CC(=O)O)c1ccc(Cl)cc1 (stereo not shown) [baclofen]	–	–	–	–	–	–	no deleterious histopathology
